Measured values: article PMC6902048, “UGT85A84 Catalyzes the Glycosylation of Aromatic Monoterpenes in Osmanthus fragrans Lour. Flowers” (Frontiers in Plant Science, 2019)
Values joined by “and” are separate entries in the source; they are usually repeats but may differ in a detail not shown here. Equal values may be shown once.

Experiments:
UGTs from Vitis vinifera = tested on: UGTs from Vitis vinifera; design: method as in Friedericke et al., 2014a; Friedericke et al., 2014b; settings: several Vitis vinifera UGTs, enzymes not named, ref Friedericke et al., 2014a, 2014b; cited from earlier work
[1] = tested on: UGTs from Actinidia deliciosa; design: method as in Yar-Khing et al., 2014; settings: Actinidia deliciosa UGT; ref Yar-Khing et al., 2014; cited from earlier work
UGT85A84 [2] = test: OfUGT85A84 enzyme assay with purified recombinant protein (LC-MS, Michaelis-Menten fitting); assay type: biochemical, Osmanthus fragrans; settings: for Glycosylated products formed with the sugar donor (LC-MS): 0.5 mM sugar donor with 0.5 mM linalool or linalool oxide, 1 h or 16 h incubation at 37°C
Experimental: The full-length UGT85A84 ORF was amplified and cloned into the pET21b and pET15b expression vectors (Novagen) using the primers listed in Table S2 . The two plasmids were co-transformed into Escherichia. coli BL21 (DE3) pLysS cells (Promega, Madison, WI, USA). The co-transformed cells were cultured in lysogeny broth medium supplemented with 100 µg/ml ampicillin at 37°C until OD600 approached 1.0–1.2. The temperature was then shifted to 16°C, and the cells were incubated with 0.2 mM isopropyl β-D-1-thiogalactopyranoside for 16 h. Subsequently, the cells were harvested by centrifugation, resuspended in lysis buffer (pH 8.0) containing 25 mM Tris-HCl and 150 mM NaCl and lysed by a JN-02 homogenizer. […] The eluted protein was further purified by anion-exchange chromatography (Source 15Q 10/100, GE Healthcare) with a linear NaCl gradient in the buffer (pH 8.0) containing 25mM Tris-HCl, 1M NaCl, and 2mM dithiothreitol. Then, the elution peak was concentrated to 1 ml and subjected to size-exclusion chromatography (Superdex-200 Increase 10/300, GE Healthcare) in the buffer (pH 8.0) containing 25mM Tris-HCl, 150mM NaCl, and 5mM dithiothreitol (DTT). The purity of the protein was analyzed by sodium dodecyl sulfate polyacrylamide gel electrophoresis (SDS-PAGE) and the protein was quantified using a NanoDrop 2000 spectrophotometer (Thermo Scientific, USA). Enzymatic activity assays were carried out according to the description by [Shoji et al. (2015)] with modification. […] After incubation of the mixture at 37°C for 16 h, the reaction was terminated by the addition of 1 µl of 24% trichloroacetic acid (TCA). Except for the concentrations of substrates, the same assay conditions were used for measuring the UGT85A84 kinetic parameters. […] All the reactions were incubated at 37°C for 1 h and repeated in triplicate. The reaction products were subjected to LC-MS analysis. The apparent K m and k cat values for each aglycone and sugar donor were determined by Michaelis-Menten fitting in OriginPro 9.1 software. LC-MS analysis was performed in the Thermo Scientific™ UltiMate™ 3000RS system. The separation was conducted on a Thermo Scientific™ Syncronis C18 column (100*2.1 mm, 1.7µm) at 40°C. Mobile phases consisted of phase A referring to water with 0.1% formic acid and phase B referring to methanol with 0.1% formic acid. […] The samples were eluted with the following linear gradient: 0–1min, 2% B; 1–5min, 2-95% B; 5–7min, 95% B; 7–7.1, 95–2% B; 7.1–9, 2% B. The MS analysis was performed on a Thermo Scientific™ Q Exactive Plus hybrid quadrupole-Orbitrap benchtop high-resolution mass spectrometer equipped with heated electrospray ionization. […] Identification of target compounds was carried out using Data-Dependent Acquisition (DDA). The HCD collision energy was set at NCE 20 for negative mode and was set at NCE 30 50 80 for positive mode. Quantification was performed in the full scan negative mode.

CsGT1 = tested on: CsGT1; design: method as in Shoji et al., 2015; settings: geraniol = 100%; ref Shoji et al., 2015; cited from earlier work
PpUGT85A2 = tested on: PpUGT85A2; design: method as in Wu et al., 2018; settings: Prunus persica UGT; ref Wu et al., 2018; cited from earlier work
UGT85A84 [3] = test: Transient over-expression of OfUGTs in Nicotiana benthamiana leaves with aglycone infiltration, glycosides by GC-MS; assay type: in vivo, Osmanthus fragrans; settings: N. benthamiana leaves, 50 µM linalool and 200 µM linalool oxides infiltrated, 4 h; GC-MS after β-glucosidase
Experimental: Transient expression experiments with Nicotiana benthamiana leaves were performed as described by [Zeng et al. (2016)]. […] Five days after the inoculation, the leaves were infiltrated with different aglycone solutions (50 µM linalool and 200 µM linalool oxides in 0.5 M MES + 1 M MgCl2). Four hours after infiltration, the leaves were detached and frozen at –80°C for glycoside determination ([Yar-Khing et al., 2014]). Glycoside extraction coupled with GC-MS was performed to quantify the glycoside contents according to the previously described methods ([Zheng et al., 2017]).
The experiments of transient over-expression coupled with the substrate injection in N. benthamiana leaves were conducted to investigate the glycosides produced by candidate OfUGTs in planta. The leaves were infiltrated with Super1300-OfUGT or a control construct in the presence of linalool and its oxides. The glycosides were then extracted and purified after incubation. Subsequently, GC-MS analysis calculated the glycoside contents by quantifying the corresponding aglycones released from the glycosides.
The N. benthamiana leaves were infiltrated with a control construct (S1300-GUS) or S1300-OfUGTs in the presence of linalool and its oxides. […] Different letters indicate significant difference as determined by one-way ANOVA followed by LSD t-test (P 0.05).

[4] = tested on: UGTs from Camellia sinensis; design: method as in Shoji et al., 2015; settings: enzymes not named, ref Shoji et al., 2015; cited from earlier work
[5] = aglycone as varied substrate, fixed UDP-Glc 0.5 mM
[6] = aglycone as varied substrate, fixed UDP-Glc 0.5 mM, 37°C, 1 h

## C=CC(C)(O)CC/C=C(\C)CO (stereo not drawn) [8-Hydroxylinalool]
UGTs from Vitis vinifera
  Km: 33 ± 1.8 µM

## CCCCCC(O)CC (stereo not drawn) [Octan-3-ol]
[1]
  Km: 66.6 ± 16.2 µM

## C[C@@H]1O[C@H](OP(=O)(O)OP(=O)(O)OC[C@H]2O[C@@H](n3ccc(=O)[nH]c3=O)[C@H](O)[C@@H]2O)[C@H](O)[C@H](O)[C@H]1O [UDP-Rha, UDP-rhamnose]
UGT85A84 [2]
  Glycosylated products formed with the sugar donor (LC-MS): No products were detected

## OCCc1ccccc1 [2-PE, 2-phenylethanol]
CsGT1
  Relative activity of CsGT1 towards substrate: 9.2%

## CCCCCCO [Hexanol]
[1]
  Km: 117 ± 28.1 µM

## C=CCc1ccc(O)c(OC)c1 [eugenol]
CsGT1
  Relative activity of CsGT1 towards substrate: 84%

## C=CC(C)(O)CCC=C(C)C (stereo not drawn) [linalool]
UGT85A84 [2]; [5]
  k cat/K m: 718000 M⁻¹ s⁻¹
UGT85A84 [2]; [6]
  k cat: 0.09 S ^-1
UGT85A84 [2]; aglycone as varied substrate, fixed UDP-Glc 0.5 mM, 37°C, 1 h, mean and SEM, n = 3
  Km: 136 µM
PpUGT85A2
  Km: 463 ± 80 µM
CsGT1
  Relative activity of CsGT1 towards substrate: 1.4%
UGT85A84 [3]
  Glycoside of the injected aglycone in UGT85A84-infiltrated leaves versus control: no significant increase

## OCc1ccccc1 [benzyl alcohol]
CsGT1
  Relative activity of CsGT1 towards substrate: 48%

## CC(C)=CCCC(C)CCO (stereo not drawn) [Citronellol]
UGTs from Vitis vinifera
  Km: 433 µM and 306 µM and 445 µM

## CC(C)=CCC[C@H](C)CCO [S-Citronellol]
UGTs from Vitis vinifera
  Km: 55 ± 1.3 µM

## CC/C=C\CCO [(Z)-3-hexenol]
CsGT1
  Relative activity of CsGT1 towards substrate: 62%

## CC(C)=CCC/C(C)=C/CO[C@@H]1O[C@H](CO)[C@@H](O)[C@H](O)[C@H]1O [Geranyl β-D-glucopyranoside]
[4]
  Km: 78.1 ± 19.6 µM

## CC(C)=CCC/C(C)=C/CO [geraniol]
[1]
  Km: 76.2 ± 11.1 µM
CsGT1
  Relative activity of CsGT1 towards substrate: 100%
[4]
  Km: 44.2 ± 3 µM

## C=CC1(C)CCC(C(C)(C)O)O1 (stereo not drawn) [linalool oxide]
UGT85A84 [2]; [5]
  k cat/K m: 1.0494e+07 M⁻¹ s⁻¹
UGT85A84 [2]; [6]
  k cat: 2.12 S ^-1
UGT85A84 [3]
  Glycoside of the injected aglycone in UGT85A84-infiltrated leaves versus control: remarkable increase

## O=c1ccn([C@@H]2O[C@H](COP(=O)(O)OP(=O)(O)O[C@H]3OC[C@@H](O)[C@H](O)[C@H]3O)[C@@H](O)[C@H]2O)c(=O)[nH]1 [UDP-Xyl, UDP-xylose]
UGT85A84 [2]
  Glycosylated products formed with the sugar donor (LC-MS): No products were detected
